Test results taken from PubChem BioAssay (NCI).
Several values for one entry are separate records, joined by “and”; a condition that tells them apart may be missing. Equal entries are not always repeated.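 All cell lines were grown in 96-well plates and treated with compound for 48 hours. Abbreviation: GI50, concentration required for 50% inhibition of growth. TGI denotes the concentration required for complete inhibition of growth.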

Tests used:
Assay in all cases: NCI anticancer screen, dose series, 48 h
[1] = system: M14 melanoma
[2] = system: SNB-75 CNS
[3] = system: A498 renal
[4] = system: IGROV1 ovarian
[5] = system: SR leukemia
[6] = system: SW-620 colon
[7] = system: HCT-15 colon
[8] = system: A549 NSCLC
[9] = system: CCRF-CEM leukemia
[10] = system: OVCAR-8 ovarian
[11] = system: UACC-257 melanoma
[12] = system: NCI-H23 lung
[13] = system: SF-539 CNS

SMILES	TGI [1]	TGI [2]	TGI [3]	TGI [4]	TGI [5]	TGI [6]	TGI [7]	TGI [8]	TGI [9]	TGI [10]	TGI [11]	TGI [12]	TGI [13]	GI50 [2]	GI50 [3]	GI50 [4]	GI50 [6]	GI50 [7]	GI50 [9]	GI50 [12]
CC1(C)OC(=S)N(c2ccccc2)C12C=Cc1ccccc1O2 (configuration not stated)	> 100 µM	> 100 µM	> 100 µM	> 100 µM	37.2 µM	> 100 µM	> 100 µM	> 100 µM	> 100 µM	> 100 µM	> 100 µM	> 100 µM								
CCOP1(=O)C=C(C)C(Cl)=C(C)C1 (configuration not stated)	70.9 µM	69.7 µM		> 100 µM	> 100 µM	53.5 µM	73.7 µM	65 µM	59.2 µM	> 100 µM	88.7 µM	46.2 µM	59.5 µM							
CC(=O)Oc1ccc(/C=C/C(=O)OCCCOC(=O)/C=C/c2ccc(OC(C)=O)c(OC(C)=O)c2)cc1OC(C)=O	> 100 µM	> 100 µM	> 100 µM	> 100 µM	> 100 µM	> 100 µM	> 100 µM	> 100 µM		> 100 µM	> 100 µM	> 100 µM	> 100 µM							
N#Cc1c2c(c(N)oc1=O)C(c1ccccc1)CC(=O)N2 (configuration not stated)	> 100 µM	> 100 µM		> 100 µM		> 100 µM	> 100 µM	> 100 µM	> 100 µM	> 100 µM	> 100 µM	> 100 µM	> 100 µM							
Cc1ccc(NC(=O)c2cc(S(=O)(=O)Nc3n[nH]c(=O)[nH]3)c(SSc3cc(Cl)c(C(=O)Nc4ccc(C)cc4)cc3S(=O)(=O)Nc3n[nH]c(=O)[nH]3)cc2Cl)cc1	> 100 µM	> 100 µM	> 100 µM	> 100 µM	> 100 µM	> 100 µM	> 100 µM	> 100 µM	> 100 µM	> 100 µM	> 100 µM	> 100 µM								
Cc1ccc2nc(N/N=C/c3sccc3C)cc(C)c2c1	> 100 µM	> 100 µM	> 100 µM	> 100 µM		> 100 µM	> 100 µM	> 100 µM	> 100 µM	> 100 µM	> 100 µM	> 100 µM								
CC1=C(O)C2=C(C(=O)C1=O)[C@@H](C)CC[C@@H]2[C@@H](C)C/C=C/C(C)(C)O	> 100 µM		> 100 µM	> 100 µM	80.4 µM	> 100 µM	> 100 µM	> 100 µM	> 100 µM	> 100 µM	> 100 µM	> 100 µM	> 100 µM							
O=[N+]([O-])/C(C(Cl)=C(Cl)Cl)=C(/Cl)SCc1ccccc1	3.58 µM	24.9 µM	40.8 µM	35.7 µM		10.2 µM	19.2 µM	32.7 µM	0.448 µM	3.04 µM	7.03 µM	23 µM	32.3 µM							
CCOC(=O)C1(F)S(=O)(=O)OCCOS1(=O)=O	> 100 µM	> 100 µM			> 100 µM	> 100 µM	> 100 µM	> 100 µM		> 100 µM	> 100 µM	> 100 µM	> 100 µM							
CCOC(=O)NNC(=O)NCc1cccc(CNC(=O)NNC(=O)OCC)c1	> 100 µM	> 100 µM	> 100 µM		> 100 µM	> 100 µM	> 100 µM	> 100 µM	> 100 µM	> 100 µM	> 100 µM	> 100 µM	> 100 µM							
O=[N+]([O-])c1ccc(-c2nc3ccc(Cl)cc3[nH]2)cc1	> 100 µM	> 100 µM		> 100 µM	> 100 µM	> 100 µM	> 100 µM	> 100 µM		> 100 µM	> 100 µM	> 100 µM	> 100 µM							
COC(=O)c1ccc2c(c1)S/C(=C/c1ccc3ccc4cccc5ccc1c3c45)S2	> 100 µM	46 µM	> 100 µM	> 100 µM		76.8 µM	> 100 µM	> 100 µM	> 100 µM	> 100 µM	> 100 µM	52.7 µM	> 100 µM							
N#Cc1nc(-c2ccco2)oc1N	> 10 µM	> 10 µM		> 10 µM	> 10 µM	> 10 µM	> 10 µM	> 10 µM	> 10 µM	> 10 µM	> 10 µM	> 10 µM	> 10 µM							
O=C(NC1CCN(Cc2ccccc2)CC1)c1ccc(I)cc1	> 100 µM		> 100 µM	> 100 µM	> 100 µM	> 100 µM	> 100 µM	> 100 µM	> 100 µM	> 100 µM	> 100 µM	> 100 µM	> 100 µM							
COc1ccc(/C=N/n2c(C)n[nH]c2=O)c(OC)c1	> 100 µM	> 100 µM	> 100 µM			> 100 µM	> 100 µM	> 100 µM	> 100 µM	> 100 µM	> 100 µM	> 100 µM	> 100 µM							
COC(=O)c1c(C)n([O-])c2cc(Cl)c(Cl)cc2[n+]1=O	76.6 µM		40.2 µM	19.9 µM	> 100 µM	> 100 µM	37.9 µM	28.6 µM	42.3 µM	59.3 µM	54.9 µM	> 100 µM	54.4 µM							
NS(=O)(=O)c1nnc(NS(=O)(=O)C(F)(F)F)s1	> 100 µM	> 100 µM	> 100 µM		> 100 µM	> 100 µM	> 100 µM	> 100 µM		> 100 µM		> 100 µM	> 100 µM							
Oc1ccc2cc(Br)ccc2c1-c1c(O)ccc2ccc(Br)cc12	33.1 µM		32.1 µM	20.7 µM	52.4 µM	24.2 µM	29 µM	30.4 µM	28.3 µM	30.4 µM	33.9 µM	29.1 µM	34.8 µM							
COC(=O)c1ccc(S)c(S(=O)(=O)Nc2n[nH]c(N)n2)c1	> 100 µM		> 100 µM	> 100 µM	> 100 µM	> 100 µM	> 100 µM	> 100 µM	> 100 µM	> 100 µM	> 100 µM	> 100 µM	> 100 µM							

SMILES	TGI [1]	TGI [2]	TGI [3]	TGI [4]	TGI [5]	TGI [6]	TGI [7]	TGI [8]	TGI [9]	TGI [10]	TGI [11]	TGI [12]	TGI [13]	GI50 [2]	GI50 [3]	GI50 [4]	GI50 [6]	GI50 [7]	GI50 [9]	GI50 [12]
CCOC(=O)CNC(=O)C(CSC(=O)N(O)c1ccc(Cl)cc1)NC(=O)CCC(N)C(=O)OCC (configuration not stated)	> 50 µM			> 50 µM	> 50 µM	> 50 µM	> 50 µM	> 50 µM	> 50 µM	> 50 µM	> 50 µM	> 50 µM	> 50 µM							
O=[N+]([O-])c1ccc(OC2CC3C4C=CC3C2C4)c([N+](=O)[O-])c1 (configuration not stated)	> 100 µM	69.7 µM and > 31.6 µM	> 100 µM	> 100 µM		> 100 µM	> 100 µM	> 100 µM	> 100 µM	> 100 µM	> 100 µM	> 100 µM	> 100 µM	34.5 µM	96.5 µM and > 31.6 µM	91.5 µM and > 31.6 µM	> 100 µM	> 100 µM	> 100 µM and 24 µM	> 100 µM and 26.8 µM
NNC(=O)c1c(-c2cccnc2)cnc2ccccc12	> 100 µM	> 100 µM		> 100 µM	> 100 µM	> 100 µM	> 100 µM	> 100 µM	> 100 µM	> 100 µM	> 100 µM	> 100 µM	> 100 µM							
CCc1c(C)c(C#N)c(=S)n(C2OC(COC(C)=O)C(OC(C)=O)C(OC(C)=O)C2OC(C)=O)c1-c1ccccc1 (configuration not stated)	> 31.6 µM		> 31.6 µM	> 31.6 µM	> 31.6 µM	> 100 µM	> 31.6 µM	> 31.6 µM	> 100 µM	> 31.6 µM	> 31.6 µM	> 31.6 µM	> 31.6 µM							
CN(C)C(=NCc1ccccc1)NC#N	> 100 µM			> 100 µM		> 100 µM	> 100 µM	> 100 µM		> 100 µM	> 100 µM	> 100 µM	> 100 µM							
COc1ccc(/C(Br)=C2\OC(=O)c3ccccc32)cc1	> 10 µM	> 10 µM		> 10 µM	> 10 µM	> 10 µM	> 10 µM	> 10 µM	> 10 µM	> 10 µM	> 10 µM	> 10 µM	> 10 µM							
COc1cc(O)c2c(=O)c(O)c(-c3ccc(O)c(OC)c3)oc2c1	> 100 µM	> 20.5 µM	> 100 µM	> 100 µM		> 100 µM	> 100 µM	> 100 µM	> 21.9 µM	> 100 µM	> 100 µM	> 100 µM	> 100 µM							
CCCC1CCC(=C2C(=O)CCC2=O)O1 (configuration not stated)	> 100 µM	> 100 µM		> 100 µM	> 100 µM	> 100 µM	> 100 µM	> 100 µM	> 100 µM	> 100 µM	> 100 µM	> 100 µM	> 100 µM							
CCOC(=O)C1(C(=O)OCC)[C@@H](c2ccccc2)C2=NO[C@@H]3CCC[C@H]1[C@H]23	> 100 µM	> 100 µM		> 100 µM	> 100 µM	> 100 µM	> 100 µM	> 100 µM	78.7 µM	> 100 µM	79.8 µM	> 100 µM	> 100 µM							
COc1ccc(N2C(=O)/C(=C\c3cc(OC)c(OC)c(OC)c3)SC2c2ccccc2)cc1 (configuration not stated)	> 100 µM		> 100 µM		> 100 µM	> 100 µM	> 100 µM	> 100 µM	> 100 µM	> 100 µM	> 100 µM	> 100 µM	> 100 µM							
Cc1nc2ccc(C(F)(F)F)cc2nc1NCc1ccc(Cl)c(Cl)c1		26.9 µM		31.3 µM	32.7 µM	34.7 µM	25.3 µM	30.6 µM	36.6 µM	33.2 µM	30.1 µM	30.9 µM	33.7 µM							
O=C1Cc2c([nH]c3ccc(Br)cc23)-c2cc(O)c(O)cc2N1	> 100 µM	> 100 µM	> 100 µM			> 100 µM	> 100 µM	> 100 µM		> 100 µM	> 100 µM	> 100 µM								
CCOC(=O)c1nc2cc(C(F)(F)F)ccc2nc1Nc1ccc(OC)cc1	> 100 µM	> 100 µM	> 100 µM	> 100 µM	> 100 µM	> 100 µM	> 100 µM	> 100 µM		> 100 µM	> 100 µM	> 100 µM	> 100 µM							
C/C=C/C#CC#C/C=C/C=C/C(O)CCO (configuration not stated)	> 23.1 µM	> 23.1 µM		> 23.1 µM	> 23.1 µM	> 23.1 µM	> 23.1 µM	> 23.1 µM	> 23.1 µM	> 23.1 µM	> 23.1 µM	> 23.1 µM	> 23.1 µM							
CC1(C)CNCC(C)(OCc2ccccc2)C(=O)NC(C)(C)CNCC(C)(OCc2ccccc2)C(=O)N1 (configuration not stated)	> 10 µM	> 10 µM	> 10 µM	> 10 µM		> 10 µM	> 10 µM	> 10 µM	> 10 µM	> 10 µM	> 10 µM	> 10 µM	> 10 µM							
COc1c(=O)cc2cc[nH]c3ccn(C)c1c23	> 100 µM	> 100 µM	> 100 µM	> 100 µM	> 100 µM	> 100 µM	> 100 µM	> 100 µM		> 100 µM	> 100 µM	> 100 µM								
CCCCc1ccc(-n2sc3ncc(C)cc3c2=O)cc1	29.4 µM	> 100 µM		> 100 µM	> 100 µM	78 µM	59.1 µM	78.9 µM	50.5 µM	51.1 µM		> 100 µM								
CC1(c2nc3ccccc3[nH]2)CCC(C(=O)O)C(C)(C)O1 (configuration not stated)	> 100 µM	> 100 µM		> 100 µM	> 100 µM	> 100 µM	> 100 µM	> 100 µM	> 100 µM	> 100 µM	> 100 µM	> 100 µM	> 100 µM							
C/C(=C\CBr)CCC(Br)C(C)(C)Cl (configuration not stated)	> 100 µM	> 100 µM		> 100 µM	> 100 µM	> 100 µM	> 100 µM	> 100 µM		> 100 µM	> 100 µM	> 100 µM	> 100 µM							
